Source: the METLIN SMRT retention time set (Domingo-Almenara et al. 2019)

Assay: gradient 5% acetonitrile 3 min, to 50% in 2 min, to 85% in 15 min, held 3 min, 100 µL/min
Details: column: Zorbax Extend-C18 2.1 x 50 mm; eluents: water / acetonitrile, 0.1% formic acid
Outline: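 In both positive and negative ionization mode, a quadrupole time-of-flight mass spectrometer coupled to HPLC analyzed pure standards run in mixtures of ~100 molecules. The Zorbax Extend-C18 column (2.1 × 50 mm, 1.8 μm) was operated at 100 μL/min with water and acetonitrile, each containing 0.1% formic acid. The dead volume was 40 μL and the dwell volume 900 μL. Retention time came from adduct peaks that were computationally picked and individually inspected by hand.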

SMILES | RP-LC retention time
Cc1cccc(NC(=O)C2CC(=O)N(c3ccc4c(c3)CCN4C(=O)C3CC3)C2)c1 (stereo not given) | 816 s
CCN(C(=O)Cn1c(CNC(=O)c2ccco2)nc2ccccc21)c1ccccc1 | 687 s
CCN(CC)CCNC(=O)c1ccc(-c2ccccc2)cc1 | 587 s
Cc1ccc(CNC(=O)C(C)Oc2cc(-c3ccccc3)c3c(C)nn(C)c3n2)o1 (stereo not given) | 769 s
CCc1noc(-c2ccnc(-n3cnc(C(=O)Nc4ccc(F)cc4C)c3)c2)n1 | 990 s
COCCNC(=O)C1Cn2cccc2C(=O)N1C (stereo not given) | 570 s
Cc1ccc2c(c1)C(=O)NC1(CCN(C(=O)Cc3cccc(F)c3)CC1)N2C | 787 s
COCCOCc1nc(C2CCCN2C(=O)c2sccc2C)no1 (stereo not given) | 716 s
Cc1ccc(C2Cn3nnc(-c4nc(-c5ccsc5)no4)c3CO2)c(C)c1 (stereo not given) | 1220 s
Cc1nn(S(=O)(=O)N(C)C)c(C)c1Br | 881 s
O=C(c1ccc(OCC2CCCN2C(=O)COc2ccc(F)cc2)cc1)N1CCOCC1 (stereo not given) | 778 s
CN1C(=O)c2cc(C(=O)NCCC3=CCCCC3)nn2CC1(C)C(=O)NCc1ccc(F)cc1 (stereo not given) | 811 s
O=C(Cc1nnc2cc(-c3nc(C4CC4)no3)ccn12)NC1CCCCC1 | 737 s
Cc1cnc(C)n1CC1CCN(C(=O)C2CCC2)C1 (stereo not given) | 565 s
CC12CC(NC(=O)N1c1cccc(C(=O)O)c1)c1ccccc1O2 (stereo not given) | 683 s
CCOC(=O)c1c(C)oc2ncnc(NCCN3CCN(c4ccc(OC)cc4)CC3)c12 | 716 s
CC(C)n1c(=O)sc2cc(S(=O)(=O)N3CCC(C(=O)N4CCc5ccccc54)CC3)ccc21 | 1020 s
Cc1ccc(C(C)NC(=O)C2CCCN(c3cnc4nccnc4c3)C2)c(C)c1 (stereo not given) | 809 s
CCc1nc2cc3c(cc2n1CC(=O)Nc1ccc2c(c1)OCCCO2)OCCO3 | 648 s
O=C(Nc1ccccc1-c1cn2c(CN3CCNCC3)csc2n1)c1cnc2ccccc2n1 | 783 s
CSc1ccc(-c2nc3nc(C)cc(C)n3c2Nc2ccccc2)cc1 | 755 s
CCN1CCN(c2cc(C)c3cc(NC(=S)N4CCN(c5ccccc5)CC4)ccc3n2)CC1 | 603 s
CCOC(=O)c1c(S(=O)(=O)N2CCC(C(=O)NCc3ccc(OC)cc3)CC2)c(C)n(C)c1C | 793 s

SMILES | RP-LC retention time
O=C1NCCOCCN(C(=O)c2nccc3ccccc23)[C@H]2CCC[C@@H]12 | 674 s
O=C(Nc1nc2c(s1)CCCC2C(=O)N1CCc2ccccc21)c1ccc2c(c1)OCO2 (stereo not given) | 949 s
CCn1cc(C(=O)Nc2ccc(C)cc2)c(S(=O)(=O)N2CCSCC2)n1 | 887 s
Cc1ccc(C)c2sc(N(C)CC(=O)NCCSc3nncn3C)nc12 | 719 s
COC(=O)Cn1c(-c2ccc(C)cc2)cnc1SCC(=O)Nc1nnc(C)s1 | 680 s
Cn1cccc(C(=O)NC2CC(=O)N(C3CC3)C2)c1=O (stereo not given) | 547 s
CCn1cnc(S(=O)(=O)N2CCC(C(=O)NCc3ccccn3)CC2)c1 | 540 s
Cc1nc(C)c(C(=O)Nc2ccc(F)c(C)c2)s1 | 810 s
Cc1nc(-c2ccc3c(c2)CCN3C(=O)Cc2ccc(F)cc2)cs1 | 990 s
Cc1cc(OC(=O)c2cc3ccccc3o2)c([N+](=O)[O-])c(=O)[nH]1 | 1160 s
O=C(c1ccncc1)N1CCc2cc(-c3csc(C4CC4)n3)ccc21 | 848 s
COc1ccc(C)cc1NC(=O)C1CCN(c2cc(N3CCSCC3)ncn2)CC1 | 717 s
O=C(Nc1cnc(-c2cccc(Cl)c2)nc1)c1ccccc1 | 1070 s
Cc1cc(Cl)ccc1S(=O)(=O)N1CCCC1c1nc(-c2cccc(F)c2)no1 (stereo not given) | 1220 s
COc1cccc(S(=O)(=O)N2CCc3c(c(-c4nnc(-c5ccccc5)o4)nn3C)C2)c1 | 933 s
COC(=O)C1=C(CN2CCCC2)NC(=O)NC1c1ccccc1C (stereo not given) | 588 s
Cc1nc(-c2ccc3c(c2)n(CC(=O)NC(C)(C)C)c(=O)n3C(C)C)no1 | 810 s
CCCn1c(CCc2ccccc2NS(=O)(=O)c2cnn(CC)c2)nc2ccccc21 | 680 s
CCCCNC(=O)Cc1c(C)nn(-c2nc(-c3ccc(F)cc3)cs2)c1C | 1070 s
Cc1cc(F)ccc1NC(=O)C1CCN(S(=O)(=O)c2cn(C(C)C)cn2)CC1 | 732 s
Cc1nccn1-c1cc(N2CCCCC2)nc2ccnn12 | 594 s
Cc1ccc(NCCN(C)C)c2c(=O)c3cc(O)ccc3sc12 | 736 s
CCc1nc(-c2nnn(-c3ccc(F)cc3)c2C)no1 | 874 s

SMILES | RP-LC retention time
Cc1ccc(NC(=O)N2c3ccccc3CC2c2nc(C3CC3)no2)c(C)c1 (stereo not given) | 1080 s
O=C(c1csc(N2CCN(c3ccccc3)CC2)n1)N1CCN(c2ccccn2)CC1 | 685 s
Nc1nc(N)nc(C2C=CCCC2)n1 (stereo not given) | 620 s
NC(=O)c1cc(-c2ccccc2)n[nH]1 | 623 s
Cc1cc(C)c(CNC(=O)c2ccc(NC(=O)C3CC3)cc2N2CCOCC2)c(C)c1 | 901 s
O=C(CCc1cc2ccccc2[nH]c1=O)NCCN1CCCCCC1 | 595 s
CCn1cc(C(=O)Nc2ccc(C)cc2Cl)c2cccnc21 | 984 s
Cc1ccc(Sc2nccnc2N2CCCC(C(=O)Nc3ccc(F)c(C)c3)C2)cc1 (stereo not given) | 1230 s
CC(=O)N1CCc2cc(CNS(=O)(=O)c3ccc(Cl)cc3)ccc21 | 811 s
CCOc1ccc(C2Cn3nnc(-c4nc(-c5cccnc5)no4)c3CO2)cc1 (stereo not given) | 982 s
COc1ccccc1-c1noc(C2CCCN2C(=O)NC2CCCCC2)n1 (stereo not given) | 858 s
CC1=C(c2ccccc2)S(=O)(=O)N=C1N1CCCN(C(=O)c2ccc(Cl)s2)CC1 | 896 s
CC(C)C(=O)N1CCc2[nH]nc(C(=O)NCCCc3ccccc3)c2C1 | 756 s
Cc1ccc(C(=O)NC2CCN(c3ncnc4c3CCC4)C2)s1 (stereo not given) | 606 s
Cc1ccccc1-c1noc(CCc2nnc3ccc(N4CCN(c5ccc(F)cc5)CC4)nn23)n1 | 1110 s
Cc1csc(-c2cc(S(=O)(=O)NCCN(C)C)cn2CC(=O)N2CCCCC2)n1 | 630 s
CN1c2cc(F)ccc2C(=O)NC12CCN(C(=O)NCc1ccccc1)CC2 | 724 s
CCCNC(=O)C1CCCN(c2ccc(SCC(=O)Nc3ccccc3F)nn2)C1 (stereo not given) | 620 s
O=C(O)CCC1(c2ccccc2)NC(=O)NC1=O (stereo not given) | 651 s
O=C(Nc1cccc(Cl)c1)N1CCC(n2c(-c3ccco3)nc3cccnc32)C1 (stereo not given) | 800 s
CCn1ccc2c(cc(C(=O)Nc3ccc(C)c(F)c3)n2C)c1=O | 830 s
COC(=O)c1ccccc1NC(=O)CCn1c(=O)oc2ccccc21 | 825 s
COc1ccc(OC)c(S(=O)(=O)N2CCc3nc(-c4ccccc4)[nH]c3C2)c1 | 536 s

SMILES | RP-LC retention time
CN(C(=O)Cn1ccn2nc(-c3ccc(F)cc3)c(CO)c2c1=O)c1ccccc1 | 924 s
CCOC(=O)c1cnc2c(-c3ccc(F)cc3)c(COC)nn2c1N | 981 s
Cc1cc(F)ccc1NC(=O)Cn1cc2c(n1)CCC(C)C2 (stereo not given) | 948 s
CC(C)C(NC(=O)Nc1ccc2c(c1)OCO2)C(=O)N1CCc2ccccc21 (stereo not given) | 898 s
COc1cc(Cn2c(N)c(C#N)c3nc4ccccc4nc32)cc(OC)c1OC | 720 s
CN(C)CCN1C(=O)c2cccc3cc(N)cc(c23)C1=O | 626 s
COCc1noc([C@@H]2CC(F)(F)CN2C(=O)c2ocnc2C)n1 | 679 s
COc1cccc(S(=O)(=O)N2CCC(OCCOCc3ccccc3)CC2)c1 | 678 s
Cc1nc(-c2csc(S(=O)(=O)NCc3ccccc3Cl)c2)sc1C | 1030 s
Cc1nnc(NC(=O)CNC(=O)c2ccc(=O)[nH]c2)s1 | 520 s
Cc1ccc(NC(=O)N(C)CCc2noc(COc3ccccc3F)n2)cc1F | 943 s
Cn1c(=O)n(CCN2CCCCC2)c(=O)c2c1nc1n2CCCN1C1CCCCC1 | 681 s
Cc1ccc(Cl)c(NS(=O)(=O)c2cc3c(s2)CCN(C(=O)C2CC2)C3)c1 | 901 s
COc1ccc(NC(=O)Cc2nnc3ccc(C(=O)Nc4ccccc4)cn23)cc1 | 749 s
Cc1ccc(CC(=O)Nc2ccc(-c3nc(Cn4nc(C)cc4C)c(C)o3)cc2)cc1 | 559 s
CCN1CCN(CCCNC(=O)C2CCCN(c3ncnc4onc(C)c34)C2)CC1 (stereo not given) | 557 s
CC(=O)N1CCc2c(sc(NC(=O)C3(c4ccc(Cl)cc4)CCCC3)c2C#N)C1 | 946 s
NC(=O)c1ccc(I)c([N+](=O)[O-])c1 | 745 s
COc1ccc(C(O)Cn2ccn3nc(-c4ccc(C)c(C)c4)cc3c2=O)cc1 (stereo not given) | 947 s
O=C1C2N=NN(Cc3nc(-c4ccccc4)no3)C2C(=O)N1c1ccccc1 (stereo not given) | 906 s
COc1ccc(OCc2noc(CNC(=O)Nc3ccc(Cl)c(Cl)c3)n2)cc1 | 917 s
